According to ChEMBL document CHEMBL3045789, “Tetracyclic spirooxindole blockers of hNaV1.7: activity in vitro and in CFA-induced inflammatory pain model” (Med Chem Res, 2013):
Converted amounts (≈) assume the structure as drawn. The source made the active and inactive calls. No cut-off for these calls is given here.

Legend:
[1] = biological target: CYP3A4 (Homo sapiens, UniProt P08684); assay: Inhibition of Homo sapiens (human) recombinant CYP3A4 at 10 uM by fluorogenic assay; type: ADME
[2] = Solubility of the compound in phosphate buffered saline at pH 7.4; type: physicochemical
[3] = biological target: Sodium channel protein type 9 subunit alpha (Homo sapiens, UniProt Q15858); assay: Inhibition of Homo sapiens (human) NaV1.7 expressed in HEK293 cells assessed as decrease in [14C]guanidinium influx after 2 hr by liquid scintillation counting analysis; type: cell-based
Sequence of Sodium channel protein type 9 subunit alpha (Q15858 whole entry): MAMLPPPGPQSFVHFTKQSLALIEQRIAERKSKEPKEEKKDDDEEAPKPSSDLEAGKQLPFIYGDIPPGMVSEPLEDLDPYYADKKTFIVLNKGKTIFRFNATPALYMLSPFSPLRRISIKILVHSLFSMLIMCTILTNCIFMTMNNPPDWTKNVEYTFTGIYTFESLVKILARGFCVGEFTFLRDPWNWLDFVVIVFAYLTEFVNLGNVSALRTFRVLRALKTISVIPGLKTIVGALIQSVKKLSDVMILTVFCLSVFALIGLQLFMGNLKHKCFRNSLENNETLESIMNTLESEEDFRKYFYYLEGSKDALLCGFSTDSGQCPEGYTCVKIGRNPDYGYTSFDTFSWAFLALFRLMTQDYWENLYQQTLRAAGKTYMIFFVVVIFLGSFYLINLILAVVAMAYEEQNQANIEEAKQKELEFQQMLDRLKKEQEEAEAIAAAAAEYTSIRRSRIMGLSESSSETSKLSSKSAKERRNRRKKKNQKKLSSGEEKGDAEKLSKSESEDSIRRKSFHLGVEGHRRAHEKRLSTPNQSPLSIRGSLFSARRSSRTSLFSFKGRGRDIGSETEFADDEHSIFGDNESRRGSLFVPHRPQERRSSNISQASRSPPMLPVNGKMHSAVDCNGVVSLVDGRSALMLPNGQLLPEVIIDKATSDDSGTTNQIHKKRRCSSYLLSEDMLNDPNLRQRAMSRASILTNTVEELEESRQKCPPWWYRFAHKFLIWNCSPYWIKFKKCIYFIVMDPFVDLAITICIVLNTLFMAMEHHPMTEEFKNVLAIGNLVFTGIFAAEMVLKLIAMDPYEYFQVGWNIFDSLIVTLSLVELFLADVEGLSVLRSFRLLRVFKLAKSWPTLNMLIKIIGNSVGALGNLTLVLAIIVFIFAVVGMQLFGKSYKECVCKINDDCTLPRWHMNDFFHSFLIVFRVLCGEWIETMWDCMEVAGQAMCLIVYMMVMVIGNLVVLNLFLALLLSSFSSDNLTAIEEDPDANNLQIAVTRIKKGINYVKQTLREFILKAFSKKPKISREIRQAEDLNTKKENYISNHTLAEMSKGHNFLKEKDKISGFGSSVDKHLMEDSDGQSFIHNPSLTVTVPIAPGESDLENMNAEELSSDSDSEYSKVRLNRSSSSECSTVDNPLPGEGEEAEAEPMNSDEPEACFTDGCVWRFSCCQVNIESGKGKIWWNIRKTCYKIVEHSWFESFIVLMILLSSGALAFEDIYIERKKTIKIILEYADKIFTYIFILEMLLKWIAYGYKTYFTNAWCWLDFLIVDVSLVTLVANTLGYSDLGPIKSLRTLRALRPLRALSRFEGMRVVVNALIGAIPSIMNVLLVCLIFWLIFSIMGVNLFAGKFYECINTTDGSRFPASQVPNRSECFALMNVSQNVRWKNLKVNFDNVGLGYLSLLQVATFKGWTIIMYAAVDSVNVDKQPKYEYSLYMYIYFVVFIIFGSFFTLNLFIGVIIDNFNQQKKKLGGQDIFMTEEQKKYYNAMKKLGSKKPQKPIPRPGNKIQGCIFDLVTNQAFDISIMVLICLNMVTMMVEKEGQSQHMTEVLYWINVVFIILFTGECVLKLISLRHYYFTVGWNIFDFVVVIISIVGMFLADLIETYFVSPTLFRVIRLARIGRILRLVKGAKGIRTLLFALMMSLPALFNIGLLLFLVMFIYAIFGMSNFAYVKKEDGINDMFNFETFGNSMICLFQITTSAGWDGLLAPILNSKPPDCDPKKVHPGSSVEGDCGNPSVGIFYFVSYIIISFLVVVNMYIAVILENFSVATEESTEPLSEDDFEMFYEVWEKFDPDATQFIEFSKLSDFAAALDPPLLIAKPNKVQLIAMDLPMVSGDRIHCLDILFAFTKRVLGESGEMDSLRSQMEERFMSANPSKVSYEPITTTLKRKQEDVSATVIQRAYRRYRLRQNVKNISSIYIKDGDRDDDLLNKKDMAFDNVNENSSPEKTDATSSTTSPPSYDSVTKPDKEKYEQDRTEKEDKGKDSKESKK

[4] = system: Rattus norvegicus; assay: Analgesic activity in CFA-induced Rattus norvegicus (rat) inflammatory pain model assessed as reduction of mechanical allodynia at 10 mg/kg, ip after 1 hr by von Frey test; type: functional, organism-based; set-up: dose 10 mg/kg
[5] = Metabolic stability in Rattus norvegicus (rat) liver microsomes assessed as compound remaining after 30 min; type: ADME; settings: read-out: Stability
[6] = system: Rattus norvegicus; assay: Analgesic activity in CFA-induced Rattus norvegicus (rat) inflammatory pain model assessed as reduction of mechanical allodynia at 40 mg/kg, po after 1 hr by von Frey test; type: functional, organism-based; set-up: dose 40 mg/kg
[7] = AUClast in Sprague-Dawley Rattus norvegicus (rat) at 10 mg/kg, po; type: ADME, organism-based; set-up: time 0 - last, dose 10 mg/kg, route oral; settings: plasma
[8] = Clearance in Sprague-Dawley Rattus norvegicus (rat) at 1 mg/kg, iv; type: ADME, organism-based; set-up: dose 1 mg/kg, route intravenous; settings: in vivo
[9] = Metabolic stability in Homo sapiens (human) hepatocytes assessed as compound remaining after 2 hr; type: ADME, cell-based, Hepatocyte; settings: read-out: Stability
[10] = AUClast in Sprague-Dawley Rattus norvegicus (rat) at 1 mg/kg, iv; type: ADME, organism-based; set-up: time 0 - last, dose 1 mg/kg, route intravenous; settings: plasma
[11] = biological target: Cytochrome P450 3A4 (Homo sapiens, UniProt P08684); assay: Inhibition of Homo sapiens (human) recombinant CYP3A4 by fluorogenic assay; type: ADME
Sequence of Cytochrome P450 3A4 (P08684 whole entry): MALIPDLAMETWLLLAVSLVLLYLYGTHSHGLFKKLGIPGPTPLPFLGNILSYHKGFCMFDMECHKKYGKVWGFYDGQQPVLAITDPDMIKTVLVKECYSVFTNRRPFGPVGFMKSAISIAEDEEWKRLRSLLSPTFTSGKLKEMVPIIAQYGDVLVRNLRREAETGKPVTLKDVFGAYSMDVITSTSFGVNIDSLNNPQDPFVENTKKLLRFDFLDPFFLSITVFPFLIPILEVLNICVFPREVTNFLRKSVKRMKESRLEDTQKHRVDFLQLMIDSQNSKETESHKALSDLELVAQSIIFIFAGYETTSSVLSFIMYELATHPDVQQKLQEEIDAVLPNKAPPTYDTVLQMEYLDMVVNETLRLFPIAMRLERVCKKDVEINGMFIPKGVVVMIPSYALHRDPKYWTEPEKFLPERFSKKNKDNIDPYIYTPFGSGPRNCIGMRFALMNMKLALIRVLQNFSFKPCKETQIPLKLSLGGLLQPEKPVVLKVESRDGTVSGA

[12] = Apparent permeability across basolateral to apical side in Homo sapiens (human) Caco2 cells; type: ADME, cell-based; settings: Caco-2
[13] = Apparent permeability across apical to basolateral side in Homo sapiens (human) Caco2 cells; type: ADME, cell-based; settings: Caco-2
[14] = Plasma protein binding in Rattus norvegicus (rat); type: ADME, cell-free; settings: read-out: PPB (converted)
[15] = Cytotoxicity against Homo sapiens (human) HepG2 cells assessed as cell viability after 16 hr; type: cell-based; settings: read-out: Activity
[16] = Tmax in Sprague-Dawley Rattus norvegicus (rat) at 10 mg/kg, po; type: ADME, organism-based; set-up: dose 10 mg/kg, route oral; settings: in vivo
[17] = biological target: hERG (KCNH2) (Homo sapiens, UniProt Q12809); assay: Inhibition of Homo sapiens (human) ERG expressed in HEK293 cells at 10 uM after 3 hr by rubidium efflux assay; type: cell-based; settings: HEK293 cells expressing human ERG
Sequence of hERG (KCNH2) (Q12809 whole entry): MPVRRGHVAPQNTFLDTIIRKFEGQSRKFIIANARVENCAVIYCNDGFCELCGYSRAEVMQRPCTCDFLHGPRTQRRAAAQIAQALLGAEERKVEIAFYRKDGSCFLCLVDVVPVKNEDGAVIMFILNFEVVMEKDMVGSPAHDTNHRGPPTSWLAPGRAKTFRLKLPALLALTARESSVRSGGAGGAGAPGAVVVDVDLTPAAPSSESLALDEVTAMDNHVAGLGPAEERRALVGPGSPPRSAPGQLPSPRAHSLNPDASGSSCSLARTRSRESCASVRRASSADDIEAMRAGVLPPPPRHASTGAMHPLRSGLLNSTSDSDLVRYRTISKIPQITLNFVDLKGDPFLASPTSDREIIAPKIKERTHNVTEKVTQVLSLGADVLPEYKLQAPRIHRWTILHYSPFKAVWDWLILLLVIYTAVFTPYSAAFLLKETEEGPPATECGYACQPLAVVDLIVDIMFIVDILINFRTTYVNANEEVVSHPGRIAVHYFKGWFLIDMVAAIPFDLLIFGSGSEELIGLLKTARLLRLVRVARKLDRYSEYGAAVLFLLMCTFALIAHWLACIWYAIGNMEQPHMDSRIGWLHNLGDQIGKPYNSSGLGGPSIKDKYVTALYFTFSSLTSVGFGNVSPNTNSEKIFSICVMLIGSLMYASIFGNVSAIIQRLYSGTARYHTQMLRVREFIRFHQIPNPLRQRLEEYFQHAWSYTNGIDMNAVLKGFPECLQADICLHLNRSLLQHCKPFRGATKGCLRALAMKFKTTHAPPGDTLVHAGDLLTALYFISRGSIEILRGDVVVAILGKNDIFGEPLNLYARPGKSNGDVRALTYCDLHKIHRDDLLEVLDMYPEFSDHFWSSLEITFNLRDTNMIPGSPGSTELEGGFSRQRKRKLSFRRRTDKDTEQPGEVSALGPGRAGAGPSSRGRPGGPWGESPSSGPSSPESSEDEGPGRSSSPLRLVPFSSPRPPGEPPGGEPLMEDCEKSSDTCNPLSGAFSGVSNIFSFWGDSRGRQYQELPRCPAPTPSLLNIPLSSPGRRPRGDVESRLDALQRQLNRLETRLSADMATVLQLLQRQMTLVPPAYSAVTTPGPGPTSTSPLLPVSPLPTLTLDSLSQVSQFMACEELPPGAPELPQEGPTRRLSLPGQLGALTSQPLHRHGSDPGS

[18] = Metabolic stability in Rattus norvegicus (rat) hepatocytes assessed as compound remaining after 2 hr; type: ADME, cell-based, Hepatocyte; settings: read-out: Stability
[19] = Volume of distribution at steady state in Sprague-Dawley Rattus norvegicus (rat) at 1 mg/kg, iv; type: ADME, organism-based; set-up: dose 1 mg/kg, route intravenous; settings: in vivo, read-out: Vdss
[20] = system: Rattus norvegicus; assay: Analgesic activity in CFA-induced Rattus norvegicus (rat) inflammatory pain model assessed as reduction of mechanical allodynia at 10 mg/kg, po after 1 hr by von Frey test relative to vehicle-treated control; type: functional; set-up: scale not given: the % may be the effect or the level left
[21] = Cmax in Sprague-Dawley Rattus norvegicus (rat) at 1 mg/kg, iv; type: ADME, organism-based; set-up: dose 1 mg/kg, route intravenous; settings: in vivo
[22] = Oral bioavailability in Sprague-Dawley Rattus norvegicus (rat) at 10 mg/kg; type: ADME, organism-based; settings: in vivo
[23] = Terminal half life in Sprague-Dawley Rattus norvegicus (rat) at 1 mg/kg, iv; type: ADME, organism-based; set-up: dose 1 mg/kg, route intravenous; settings: in vivo, read-out: beta t1/2 (converted)
[24] = Cmax in Sprague-Dawley Rattus norvegicus (rat) at 10 mg/kg, po; type: ADME, organism-based; set-up: dose 10 mg/kg, route oral; settings: in vivo
[25] = Metabolic stability in Canis lupus familiaris (dog) hepatocytes assessed as compound remaining after 2 hr; type: ADME, cell-based, Hepatocyte; settings: read-out: Stability

Sequence of CYP3A4 (P08684 whole entry): as the sequence (P08684 whole entry) above

CCCCCN1C(=O)C2(COc3cc4c(cc32)OCO4)c2ccccc21 (stereo unspecified)
inhibition at 10 µM [1]: 97%

Cc1cc2c(cc1C)C1(CO2)C(=O)N(Cc2ccccn2)c2ccccc21 (stereo unspecified)
solubility [2]: 6 µg/mL (≈ 16.8 µM)
IC50 [3]: 230 nM
inhibition at 10 µM [1]: 43%

COc1cc2c(cn1)OCC21C(=O)N(C[C@H]2CCCO2)c2ccccc21 (stereo partly specified)
solubility [2]: < 5 µg/mL
IC50 [3]: 50 nM
inhibition at 10 µM [1]: 14%

COc1cc2c(cn1)OCC21C(=O)N(Cc2ccc(C(F)(F)F)o2)c2ccccc21 (stereo unspecified)
solubility [2]: < 5 µg/mL
IC50 [3]: 4 nM
inhibition at 10 µM [1]: 74%

COc1cc2c(cn1)OCC21C(=O)Nc2ccccc21 (stereo unspecified)
solubility [2]: 52 µg/mL (≈ 194 µM)
IC50 [3]: 350 nM
inhibition at 10 µM [1]: 13%

COc1ccc2c(c1)OCC21C(=O)N(Cc2ccccn2)c2ccccc21 (stereo unspecified)
solubility [2]: 25 µg/mL (≈ 69.8 µM)
IC50 [3]: 8 nM
inhibition at 10 µM [1]: 29%

COc1cc2c(cn1)OCC21C(=O)N(C[C@@H]2CCCO2)c2ccccc21 (stereo partly specified)
Activity [4]: inactive
solubility [2]: 61 µg/mL (≈ 173 µM)
remaining at 0.5 h [5]: 8%
Activity [6]: inactive
IC50 [3]: 20 nM
inhibition at 10 µM [1]: 22%

N#Cc1cc2c(cc1F)OCC21C(=O)N(Cc2ncccc2C(F)(F)F)c2ccccc21 (stereo unspecified)
solubility [2]: < 5 µg/mL
IC50 [3]: > 1000 nM
inhibition at 10 µM [1]: 10%

COc1cc2c(cc1F)C1(CO2)C(=O)N(Cc2ccccn2)c2ccccc21 (stereo unspecified)
solubility [2]: 15 µg/mL (≈ 39.9 µM)
IC50 [3]: 190 nM
inhibition at 10 µM [1]: 36%

COc1cc2c(cn1)OCC21C(=O)N(CC2CCCCO2)c2ccccc21 (stereo unspecified)
solubility [2]: 67 µg/mL (≈ 183 µM)
IC50 [3]: 100 nM
inhibition at 10 µM [1]: 22%

CCCCCN1C(=O)C2(COc3cc(F)c(F)cc32)c2ccccc21 (stereo unspecified)
solubility [2]: < 5 µg/mL
IC50 [3]: 240 nM
inhibition at 10 µM [1]: 50%

COc1cc2c(cc1OC)C1(CO2)C(=O)N(Cc2ccc(Cl)s2)c2ccccc21 (stereo unspecified)
solubility [2]: 8 µg/mL (≈ 18.7 µM)
IC50 [3]: 700 nM
inhibition at 10 µM [1]: 75%

COc1ccc2c(c1)OCC21C(=O)N(CC2CCCCO2)c2ccccc21 (stereo unspecified)
solubility [2]: 14 µg/mL (≈ 38.3 µM)
IC50 [3]: 10 nM
inhibition at 10 µM [1]: 35%

COc1ccc2c(n1)C1(CO2)C(=O)N(Cc2ccc(C(F)(F)F)o2)c2ccccc21 (stereo unspecified)
AUC(0-t) [7]: 77.1 ng·h/mL
clearance [8]: 66.7 mL/min/kg
remaining at 2 h [9]: 29%
solubility [2]: < 5 µg/mL
AUC(0-t) [10]: 244 ng·h/mL
IC50 [11]: > 10000 nM
Papp B→A [12]: 8.8 ×10⁻⁶ cm/s
Papp A→B [13]: 9.1 ×10⁻⁶ cm/s
fraction unbound [14]: 0.05
viability at 16 h [15]: > 96%
Tmax [16]: 4 h
inhibition at 3 h, 10 µM [17]: 7.5%
remaining at 2 h [18]: 18%
Vd [19]: 4.1 L/kg
IC50 [3]: 130 nM
inhibition at 10 µM [1]: 26%
Activity [20]: 59%
Cmax [21]: 884 ng/mL
bioavailability [22]: 3.2%
half-life [23]: 1.9 h
Cmax [24]: 12.7 ng/mL
remaining at 2 h [25]: 49%

COc1cc2c(cc1F)C1(CO2)C(=O)N(Cc2ccc(C(F)(F)F)o2)c2ccccc21 (stereo unspecified)
solubility [2]: < 5 µg/mL
IC50 [3]: 430 nM
inhibition at 10 µM [1]: 69%

COc1ccc2c(c1)OCC21C(=O)N(C[C@H]2CCCO2)c2ccccc21 (stereo partly specified)
solubility [2]: 45 µg/mL (≈ 128 µM)
IC50 [3]: 110 nM
inhibition at 10 µM [1]: 18%

COc1ccc2c(n1)C1(CO2)C(=O)N(Cc2ncccc2C(F)(F)F)c2ccccc21 (stereo unspecified)
solubility [2]: < 5 µg/mL
IC50 [3]: > 250 nM
inhibition at 10 µM [1]: 49%

COc1ccc2c(n1)C1(CO2)C(=O)N(Cc2ccccn2)c2ccccc21 (stereo unspecified)
solubility [2]: < 5 µg/mL
IC50 [3]: 180 nM
inhibition at 10 µM [1]: 42%

COc1ccc2c(n1)C1(CO2)C(=O)Nc2ccccc21 (stereo unspecified)
solubility [2]: 52 µg/mL (≈ 194 µM)
IC50 [3]: > 1000 nM
inhibition at 10 µM [1]: 27%

COc1ccc2c(n1)C1(CO2)C(=O)N(Cc2ccc(Cl)s2)c2ccccc21 (stereo unspecified)
solubility [2]: < 5 µg/mL
IC50 [3]: 60 nM
inhibition at 10 µM [1]: 73%

COc1cc2c(cc1F)OCC21C(=O)N(Cc2ccccn2)c2ccccc21 (stereo unspecified)
solubility [2]: 36 µg/mL (≈ 95.6 µM)
IC50 [3]: 470 nM
inhibition at 10 µM [1]: 16%

COc1ccc2c(n1)C1(CO2)C(=O)N(Cc2ccc3c(c2)OCCO3)c2ccccc21 (stereo unspecified)
solubility [2]: 5 µg/mL (≈ 12 µM)
IC50 [3]: 30 nM
inhibition at 10 µM [1]: 63%

COc1ccc2c(n1)C1(CO2)C(=O)N(Cc2csc(C(C)C)n2)c2ccccc21 (stereo unspecified)
solubility [2]: 5 µg/mL (≈ 12.3 µM)
IC50 [3]: 60 nM
inhibition at 10 µM [1]: 70%

O=C1N(Cc2ccccn2)c2ccccc2C12COc1cc(F)c(F)cc12 (stereo unspecified)
solubility [2]: 13 µg/mL (≈ 35.7 µM)
IC50 [3]: 270 nM
inhibition at 10 µM [1]: 30%

CCCCCN1C(=O)C2(COc3cc(OC)ccc32)c2ccccc21 (stereo unspecified)
solubility [2]: < 5 µg/mL
IC50 [3]: 60 nM
inhibition at 10 µM [1]: 64%

COCCOc1ccc2c(c1)OCC21C(=O)N(Cc2ccccn2)c2ccccc21 (stereo unspecified)
solubility [2]: 46 µg/mL (≈ 114 µM)
IC50 [3]: 150 nM
inhibition at 10 µM [1]: 22%

COc1cc2c(cc1C)C1(CO2)C(=O)N(Cc2ccccn2)c2ccccc21 (stereo unspecified)
solubility [2]: 7 µg/mL (≈ 18.8 µM)
IC50 [3]: 1150 nM
inhibition at 10 µM [1]: 61%
